Test results reported in patent US9243009B2, “Phosphate ester compound of hydroxy acid substituted phenol ester, preparation method and medical use thereof” (West China Hospital, Sichuan University, priority 2010, dated 2016).

How the values were obtained:
[1] = in words, prior-art prodrug of WO200213810; cited from earlier work
[2] = in words, prior-art prodrug of WO200213810; cited from earlier work; remark: listed apart in the source
Kunming mice = details: tail vein injection; for Median effective dose (ED50): disappearance of FRR; for disappearance time of FRR (onset time) / recovery time (recovery of FRR): during the determination of ED50; for anesthetic effect: in words
Description: Median effective doses (ED50) of propofol hydroxybutyrate phosphate disodium salt and Diprivan™ were determined by the up-and-down method. In the test, the mice were injected with the drugs through the tail veins, with the disappearance of the forepaw righting reflex (FRR) of the mice as a judgment index of the end point of anesthesia; the recovery of FRR of the mice as an index of recovery from anesthesia.
In the test, the mice were injected with the drugs through the tail veins, with the disappearance of the forepaw righting reflex (FRR) of the mice as a judgment index of the end point of anesthesia; the recovery of FRR of the mice as an index of recovery from anesthesia.

Compound	water solubility [1]	stability in aqueous solution [2]	Median effective dose (ED50) (Kunming mice)	disappearance time of FRR (onset time) (Kunming mice)	recovery time (recovery of FRR) (Kunming mice)	anesthetic effect (Kunming mice)
CC(C)c1cccc(C(C)C)c1OC(=O)CCC(=O)[O-].[Na+] [propofol succinic acid monoester sodium salt]	high water-solubility	unstable in aqueous solution	–	–	–	–
propofol w-hydroxybutyrate phosphate disodium salt	–	–	130 mg/kg	150.6 ± 42.1 s	480.6 ± 124.3 s	definite and reversible anesthetic effect
propofol w-hydroxyvalerate phosphate disodium salt	–	–	152 mg/kg	180.8 ± 45.6 s	500.1 ± 114.6 s	definite and reversible anesthetic effect
